Reference: the supplement of paper PMC3937590

Key:
Assay in all cases: -log10 GI50 (growth inhibition 50%) (-log10(M)); higher = more potent growth inhibition
MCF10A = tested on: MCF10A
Outline: (§1)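 The reported figure is the negative logarithm of GI50, defined as the molar concentration that produces the set level of growth inhibition. The logarithm is base 10. It comes from a Gompertz curve fitted by nonlinear least squares to 72-hour luminescence data from breast cancer cell lines given nine doses in 1:5 serial dilution, in triplicate, with a time-zero plate as reference. A < qualifier marks values equal to the top dose.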

HCC1806 = tested on: HCC1806
Outline: as §1

MDAMB157 = tested on: MDAMB157
Outline: as §1

SUM1315MO2 = tested on: SUM1315MO2
Outline: as §1

HCC70 = tested on: HCC70
Outline: as §1

BT483 = tested on: BT483
Outline: as §1

HCC3153 = tested on: HCC3153
Outline: as §1

LY2 = tested on: LY2
Outline: as §1

SUM149PT = tested on: SUM149PT
Outline: as §1

T47D = tested on: T47D
Outline: as §1

ZR751 = tested on: ZR751
Outline: as §1

SUM52PE = tested on: SUM52PE
Outline: as §1

SKBR3 = tested on: SKBR3
Outline: as §1

HCC1937 = tested on: HCC1937
Outline: as §1

SUM229PE = tested on: SUM229PE
Outline: as §1

UACC812 = tested on: UACC812
Outline: as §1

184B5 = tested on: 184B5
Outline: as §1

T47D_KBluc = tested on: T47D_KBluc
Outline: as §1

MX1 = tested on: MX1
Outline: as §1

Structure (SMILES)	-log10 GI50 (MCF10A)	-log10 GI50 (HCC1806)	-log10 GI50 (MDAMB157)	-log10 GI50 (SUM1315MO2)	-log10 GI50 (HCC70)	-log10 GI50 (BT483)	-log10 GI50 (HCC3153)	-log10 GI50 (LY2)	-log10 GI50 (SUM149PT)	-log10 GI50 (T47D)	-log10 GI50 (ZR751)	-log10 GI50 (SUM52PE)	-log10 GI50 (SKBR3)	-log10 GI50 (HCC1937)	-log10 GI50 (SUM229PE)	-log10 GI50 (UACC812)	-log10 GI50 (184B5)	-log10 GI50 (T47D_KBluc)	-log10 GI50 (MX1)
CC(=O)Nc1cccc(-n2c(=O)n(C3CC3)c(=O)c3c(Nc4ccc(I)cc4F)n(C)c(=O)c(C)c32)c1	8.23	6.39	6.57	7.19	8.18	< 4.78	< 4.78	< 4.78	7.64	< 4.78	< 4.78	6.92	< 4.78	< 4.78	8.17	< 4.78			
CC(C)Oc1ccc(C(=O)N[C@H](CNC(=O)CN(C)C)Cc2ccc(-c3cn4cccc([C@H](C)O)c4n3)cc2)cc1Cl	7.29	7.34	7.48	7.46	7.68	6.44	7.22		7.17	7.29	7.09	7.65	7.34	7.36	7.42	7.94	5.17		
CCNCCCNC/C=C\CNCCCNCC	4.2	3.88	2.96	2.95	5.9	3.27	5.24	2.9	4.55	5.67	3.29	5.45	3.51	5.24	4.33	3.47	3.13		
CCn1cc(-c2ccnc3[nH]c(-c4cccc(CN(C)C)c4)cc23)c(-c2ccc(NC(=O)N(C)C)cc2)n1	6.12	5.16	6.23	5.9	6.58	5.35	4.97	5.03	5.55	5.36	5.08	6.86	5.29	5.73	6.33	5.07	6.19		
C[C@@H](Oc1cc(-c2cnn(C3CCNCC3)c2)cnc1N)c1c(Cl)ccc(F)c1Cl	5.59	6.11	5.71	5.24	5.46		5.16	5.8	5.7	5.34	5.44	6.28	5.14	5.25	5.57	5.02	5.42	5.31	5.84
C[C@@H](Oc1cc(-n2cnc3ccc(CN4CCN(C)CC4)cc32)sc1C(N)=O)c1ccccc1C(F)(F)F	7.37	7.95	8.02	7.52	7.78	5.35	7.78	5.8	7.96	5.56	5.16	8.2	6.92	7.5	7.68	4.99	6.69		
O=C(O)c1ccc(-c2c[nH]c3ncc(-c4ccccc4)cc23)cc1C1CCCC1	5.55	< 4.18	< 4.18	6.1	< 4.18	< 4.48	< 4.48	5.15	< 4.18	< 4.48	< 4.18	< 4.48	< 4.48	< 4.48	5.8	< 4.18	5.97	< 4.18	4.45
O=C1NC(=O)/C(=C/c2ccc3nccc(-c4ccncc4)c3c2)S1	6.57	5.82	6.17	6.49	6.75	6.8	5.54	5.87	6.01	6.95	5.99	6.82	6.82	6.09	6.26	6.62			
C=CCNC1=C2C[C@@H](C)C[C@H](OC)[C@H](O)[C@@H](C)/C=C(\C)[C@H](OC(N)=O)[C@@H](OC)/C=C\C=C(/C)C(=O)NC(=CC1=O)C2=O [17-AAG]	7.4	7.05		7.72	6.62	6.68	6.82	6.99	7.01	5.97	6.83	7.79	7.55	6.88	7.56	7.96	7.56		
COc1cc2ncnc(Nc3cccc(Cl)c3)c2cc1OC [AG1478]	6.65	4.63	4.48	6.08	4.21	< 3.78	< 3.78	< 3.78	5.93	4.74	< 3.78	< 3.78	5.4	4.89	< 3.78				
CCc1c2c(nc3ccc(OC(=O)N4CCC(N5CCCCC5)CC4)cc13)-c1cc3c(c(=O)n1C2)COC(=O)[C@]3(O)CC [CPT-11]	5.7	5.81	5.43	5.34	4.97	5.22	4.73	4.88		6.31	5.44	5.87	5.49	5.14	5.16	5.49	5.66		
O=C(O)C1(C(=O)O)CCC1.[NH2-].[NH2-].[Pt+2] [Carboplatin]	4.2	4.81	4.07	4.57	4.82	5.82	4.45	4.34	4.82	4.02	4.1	4.71	5	4.47	4.27	4.76	5.29		
N.N.[Cl][Pt][Cl] [Cisplatin]	5.1	5.68	4.62	5.75	5.8	4.05	5.12	5.11	5.8	5.27	4.99	5.78	4.77	5.48	5.26	5.48	< 3.3		
CCN(CC)C(=S)SSC(=S)N(CC)CC [Disulfiram]	4.93		7.22	6.36	< 4.18	4.18	5.13	5.01		7.01		4.53	7.1	6.89	4.5	7.03	4.93	7	4.54
CC(=O)O[C@@]12CO[C@@H]1C[C@H](O)[C@@]1(C)C(=O)[C@H](O)C3=C(C)[C@@H](OC(=O)[C@H](O)[C@@H](NC(=O)OC(C)(C)C)c4ccccc4)C[C@@](O)([C@@H](OC(=O)c4ccccc4)[C@H]21)C3(C)C [Docetaxel]	8.63	8.62	8.76	8.71	8.49	7.65	8.01	8.2	8.76	8.51	7.74	8.67	8		7.94	8.39	8.39	7.93	
COc1cccc2c1C(=O)c1c(O)c3c(c(O)c1C2=O)C[C@@](O)(C(=O)CO)C[C@@H]3O[C@H]1C[C@H](N)[C@H](O)[C@H](C)O1 [Doxorubicin]	6.79	6.79	6.49	6.73	5.36	7	6.48	6.71		7.37	6.87	7.01	6.9	6.49	6.72	7.12			
COc1cccc2c1C(=O)c1c(O)c3c(c(O)c1C2=O)C[C@@](O)(C(=O)CO)C[C@@H]3O[C@H]1C[C@H](N)[C@@H](O)[C@H](C)O1 [Epirubicin]	6.71	6.78	6.31	7.44	6.35	6.78	6.19	6.86	6.66		6.6	7.42		6.69	6.62		8.25		
O=c1[nH]cc(F)c(=O)[nH]1 [Fluorouracil]	4.95	4.61	3.11	3.37	3.99	4.48	3.45	4.43	4.14		4.52	4.65	4.48	3.66	4.08	4.34	< 1.72		
COc1cc2ncnc(Nc3ccc(F)c(Cl)c3)c2cc1OCCCN1CCOCC1 [Gefitinib]	6.17	5.31	4.92	5.83	5.05	5.21	< 4.48	4.62	5.62	4.8	< 4.48	5.1	5.56	5.08	5.21	6.04	7.43		
COC1=C2C[C@@H](C)C[C@H](OC)[C@H](O)[C@@H](C)/C=C(\C)[C@H](OC(N)=O)[C@@H](OC)/C=C\C=C(/C)C(=O)NC(=CC1=O)C2=O [Geldanamycin]	8.23	7.12	7.71	7.7	7.09	6.84	7.18	7.24	8.22	7.62	7.06	7.93	7.79	7.49	7.91	7.97	8.01		
Nc1ccn([C@@H]2O[C@H](CO)[C@@H](O)C2(F)F)c(=O)n1 [Gemcitabine]	7.7	8.72		6.91	4.58		7.19	7.62	7.84	6.02	7.45		7.97	5.97	7.3	7.75	6.14		
O=C(O)C(=O)O.[NH-][C@@H]1CCCC[C@H]1[NH-].[Pt+2] [Oxaliplatin]	5.41	5.45	4.8	4.86	5.38	4.56	5.19	5.45	5.83	5.55	5.61	5.46	5.7	5.1	5.72	5.85	5.57		
CC(=O)O[C@H]1C(=O)[C@@]2(C)[C@H]([C@H](OC(=O)c3ccccc3)[C@]3(O)C[C@H](OC(=O)[C@H](O)[C@@H](NC(=O)c4ccccc4)c4ccccc4)C(C)=C1C3(C)C)[C@]1(OC(C)=O)CO[C@@H]1C[C@@H]2O [Paclitaxel]	8.03	8.11	8.27	8.29	8.03	7	7.7	7.97	8.03	8.02	7.76	8.2	7.94	7.81	7.72	8.08	7.74	7.84	
CC/C(=C(\c1ccccc1)c1ccc(OCCN(C)C)cc1)c1ccccc1 [Tamoxifen]	4.16	4.31	4.09	4.46	< 3.78	5.47	< 3.78	4.25	4.11	< 3.78	< 3.78	4.28	4.37	< 3.78	5.62				
CC[C@@]1(O)C(=O)OCc2c1cc1n(c2=O)Cc2cc3c(CN(C)C)c(O)ccc3nc2-1 [Topotecan]	7.23	7.69	6.4	8.08	6.3	7.38	6.68	6.59			7.16	8.08	7.95		7.2	7.3	7.16		
